The results in this text go back to ChEMBL document CHEMBL1158023, “Sideroxylonal C, a new inhibitor of human plasminogen activator inhibitor type-1, from the flowers of Eucalyptus albens” (J Nat Prod, 1999).

The target in this assay is Plasminogen activator inhibitor 1 (Homo sapiens, UniProt P05121). Description: Inhibition of human PAI1 using tissue type plasminogen activator substrate by chromogenic absorbance at 405 nm.

SMILES strings stand for the structures.

Chain of Plasminogen activator inhibitor 1 (P05121 whole entry): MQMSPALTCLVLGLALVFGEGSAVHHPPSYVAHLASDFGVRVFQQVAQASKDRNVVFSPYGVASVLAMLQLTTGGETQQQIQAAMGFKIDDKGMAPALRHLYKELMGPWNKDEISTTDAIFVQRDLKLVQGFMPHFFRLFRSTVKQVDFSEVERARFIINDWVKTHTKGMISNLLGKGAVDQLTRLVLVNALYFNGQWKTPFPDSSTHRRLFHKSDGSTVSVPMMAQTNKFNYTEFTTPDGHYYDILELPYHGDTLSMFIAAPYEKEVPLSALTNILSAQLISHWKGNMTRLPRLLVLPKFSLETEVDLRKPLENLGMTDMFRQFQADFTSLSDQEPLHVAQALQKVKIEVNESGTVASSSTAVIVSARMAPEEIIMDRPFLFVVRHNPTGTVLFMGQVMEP

By IC50 is commonly meant the concentration needed to halve the response being measured. Low values mean greater potency, high ones weaker potency. As for `CC(C)C[C@@H]1c2c(O)c(C=O)c(O)c(C=O)c2O[C@@H](c2c(O)c(C=O)c(O)c(C=O)c2O)[C@H]1C(C)C` [SIDEROXYLONAL B], the IC50 was 5.3 µM. Next, `CC(C)C[C@H]1c2c(O)c(C=O)c(O)c(C=O)c2O[C@@H](c2c(O)c(C=O)c(O)c(C=O)c2O)[C@@H]1C(C)C` [SIDEROXYLONAL C]: 4.7 µM; `CC(C)C[C@@H]1C[C@@]2(CC[C@@H]3C[C@H]2C3(C)C)Oc2c(C=O)c(O)c(C=O)c(O)c21` [ROBUSTADIAL A]: 152 µM. Then `CC(C)C[C@@H]1c2c(O)c(C=O)c(O)c(C=O)c2O[C@]2(C)C=C[C@@H](C(C)C)C[C@H]12` [EUGLOBAL IA2], with 138 µM; and `CC(C)CC(=O)c1c(O)c(C=O)c2c(c1O)C[C@H]1C[C@H](C(C)C)C=C[C@@]1(C)O2` [EUGLOBAL IIC], with 700 µM; and `CC(C)C[C@@H]1c2c(O)c(C=O)c(O)c(C=O)c2O[C@@H](c2c(O)c(C=O)c(O)c(C=O)c2O)[C@@H]1C(C)C` [SIDEROXYLONAL A], with 3.3 µM.
